Measurements taken from publication PMC10041525, “New Dual Inhibitors of Bacterial Topoisomerases with Broad-Spectrum Antibacterial Activity and In Vivo Efficacy against Vancomycin-Intermediate Staphylococcus aureus” (Journal of Medicinal Chemistry, 2023).
“And” between values parts separate entries of the source, which are not always exact repeats. Equal entries are not always repeated. Where two headings read alike, the source gives them in different places.

Columns and labels:
DNA gyrase from E. coli = target: T1, DNA gyrase from E. coli (Escherichia coli, UniProt P0AES6); assay: supercoiling HTS plate assay; format: biochemical; settings: IC50 [nM] E. coli DNA gyrase
T1 construct: purchased Inspiralis
Method: (§1) All compounds were tested for their inhibitory activities against DNA gyrase and topo IV from E. coli in supercoiling and relaxation high-throughput plate assays, respectively. Our new series of inhibitors were then tested against a panel of Gram-positive and Gram-negative bacteria.
(§2) Seven concentrations of the inhibitors were used to determine IC50 values which were then calculated with GraphPad Prism 6.0 software. Three independent measurements were performed to determine IC50 values, and mean values are reported as the final result.

topo IV from E. coli = target: T2, topo IV from E. coli (Escherichia coli, UniProt P20083); assay: relaxation HTS plate assay; format: biochemical; settings: IC50
T2 construct: purchased Inspiralis
T2 sequence (P0AFI2 whole entry): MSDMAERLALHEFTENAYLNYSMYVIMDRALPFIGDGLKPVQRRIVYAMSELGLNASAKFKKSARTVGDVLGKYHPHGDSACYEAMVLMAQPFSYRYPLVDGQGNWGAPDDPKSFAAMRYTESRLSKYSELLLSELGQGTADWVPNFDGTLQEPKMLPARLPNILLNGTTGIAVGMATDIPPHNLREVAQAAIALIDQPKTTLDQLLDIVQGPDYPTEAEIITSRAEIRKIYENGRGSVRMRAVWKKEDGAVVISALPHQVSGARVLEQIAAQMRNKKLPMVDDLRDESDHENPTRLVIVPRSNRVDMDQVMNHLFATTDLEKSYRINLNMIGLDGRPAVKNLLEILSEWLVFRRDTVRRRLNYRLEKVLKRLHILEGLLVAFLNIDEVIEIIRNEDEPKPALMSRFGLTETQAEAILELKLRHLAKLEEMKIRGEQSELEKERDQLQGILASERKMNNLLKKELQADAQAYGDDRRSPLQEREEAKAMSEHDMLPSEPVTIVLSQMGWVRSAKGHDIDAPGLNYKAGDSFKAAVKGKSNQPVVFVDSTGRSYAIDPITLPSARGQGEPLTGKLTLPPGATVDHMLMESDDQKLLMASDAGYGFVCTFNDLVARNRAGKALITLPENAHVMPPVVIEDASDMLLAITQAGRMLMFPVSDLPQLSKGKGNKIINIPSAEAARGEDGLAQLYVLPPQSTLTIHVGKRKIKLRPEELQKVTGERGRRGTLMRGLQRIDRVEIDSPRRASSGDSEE
T2 sequence (P20083 whole entry): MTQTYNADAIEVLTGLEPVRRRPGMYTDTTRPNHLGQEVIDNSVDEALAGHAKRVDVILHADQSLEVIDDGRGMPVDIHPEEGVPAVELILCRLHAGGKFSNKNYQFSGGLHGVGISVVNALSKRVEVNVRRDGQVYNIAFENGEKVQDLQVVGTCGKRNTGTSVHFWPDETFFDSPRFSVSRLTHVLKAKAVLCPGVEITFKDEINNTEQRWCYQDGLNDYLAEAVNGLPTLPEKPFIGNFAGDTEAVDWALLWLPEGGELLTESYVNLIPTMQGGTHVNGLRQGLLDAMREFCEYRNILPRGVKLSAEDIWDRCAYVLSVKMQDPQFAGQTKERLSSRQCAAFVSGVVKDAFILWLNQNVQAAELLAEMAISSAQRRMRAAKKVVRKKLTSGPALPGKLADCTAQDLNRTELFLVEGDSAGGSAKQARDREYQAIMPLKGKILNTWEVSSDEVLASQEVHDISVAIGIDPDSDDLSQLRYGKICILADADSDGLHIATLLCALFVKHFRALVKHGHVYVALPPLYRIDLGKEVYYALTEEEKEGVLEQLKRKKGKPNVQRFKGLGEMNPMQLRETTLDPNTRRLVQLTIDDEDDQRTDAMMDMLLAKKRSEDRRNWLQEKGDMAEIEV
Method: as §1, §2

A. baumannii ATCC 17978 = assay: MIC broth microdilution (CLSI); format: cell-based; settings: Acinetobacter baumannii, ATCC17978
Method: (§3) Cation-adjusted Mueller Hinton broth 2 (MHBII) was used for bacterial growth under standard laboratory conditions and for antimicrobial susceptibility tests. MHBII broth was prepared by dissolving 22 g of MHBII powder [containing beef extract (3 g), acid hydrolysate of casein (17.5 g), and starch (1.5 g); Becton Dickinson and Co.] in 1 L of water. To prepare MHBII agar, 14 g of agar (Bacto; Molar Chemicals) was added to 1 L of broth.
(§4) Bacterial strains were inoculated onto MHBII agar plates and grown overnight at 37 °C. Next, three individual colonies from each strain were inoculated into 1 mL of MHBII medium and propagated at 37 °C overnight, with agitation at 250 rpm. For Enterococcus sp., the cells were plated in brain–heart infusion [(BHI) medium] agar plates, and BHI broth was used to determine the MICs. […] Following the dilutions, each well was seeded with 5 × 10^4 bacterial cells (in 100 μL final volume). Each measurement was performed in three parallel replicates, and to avoid possible edge effects in the microwell plates, the outside rows (A, H) were filled with sterile medium. Following the inoculations, the plates were covered with the lids and wrapped in polyethylene plastic bags, to minimize evaporation but to allow O2 transfer. […] After incubation, the OD600 of each well was measured using a microplate reader (Synergy 2; Biotek).

S. aureus ATCC 29213 = assay: MIC broth microdilution (CLSI); format: cell-based; settings: Staphylococcus aureus, ATCC29213
Method: as §3, §4

[1] = tested on: Enterococcus faecalis ATCC 29212; assay: MIC broth microdilution (CLSI); format: cell-based, E. faecalis; settings: Enterococcus faecalis, ATCC29212; read-out: MIC
Method: as §3, with “MICs (Tables 1 and S1–S3) were determined with a standard serial broth microdilution technique according to Clinical and Laboratory Standards Institute (CLSI) guidelines.[45] Cation-adjusted” for “Cation-adjusted”
(§5) Bacterial strains were inoculated onto MHBII agar plates and grown overnight at 37 °C. Next, three individual colonies from each strain were inoculated into 1 mL of MHBII medium and propagated at 37 °C overnight, with agitation at 250 rpm. For Enterococcus sp., the cells were plated in brain–heart infusion [(BHI) medium] agar plates, and BHI broth was used to determine the MICs. […] The highest final DMSO concentration in the experiments was 0.64% (in the case of the 64 μg/mL concentration of the inhibitor). Following the dilutions, each well was seeded with 5 × 10^4 bacterial cells (in 100 μL final volume). Each measurement was performed in three parallel replicates, and to avoid possible edge effects in the microwell plates, the outside rows (A, H) were filled with sterile medium. Following the inoculations, the plates were covered with the lids and wrapped in polyethylene plastic bags, to minimize evaporation but to allow O2 transfer. The plates were incubated at 37 °C under continuous shaking at 150 rpm for 18 h. After incubation, the OD600 of each well was measured using a microplate reader (Synergy 2; Biotek). The MICs were defined as the antibiotic concentrations which inhibited the growth of the bacterial cultures; that is, the drug concentration where the average OD600 increment of the three technical replicates was below 1.5-fold the background OD increment.

E. coli ATCC 25922 = assay: MIC broth microdilution (CLSI); format: cell-based; settings: Escherichia coli, ATCC25922; read-out: MIC
Method: as §3, with “MICs (Tables 1 and S1–S3) were determined with a standard serial broth microdilution technique according to Clinical and Laboratory Standards Institute (CLSI) guidelines.[45] Cation-adjusted” for “Cation-adjusted”
as §5

[2] = tested on: Enterobacter cloacae spp. cloacae ATCC 13047; assay: MIC broth microdilution (CLSI); format: cell-based; settings: Enterobacter cloacae, ATCC13047; read-out: MIC
Method: as §3, with “MICs (Tables 1 and S1–S3) were determined with a standard serial broth microdilution technique according to Clinical and Laboratory Standards Institute (CLSI) guidelines.[45] Cation-adjusted” for “Cation-adjusted”
as §5

K. pneumoniae ATCC 10031 = assay: MIC broth microdilution (CLSI); format: cell-based; settings: Klebsiella pneumoniae, ATCC10031; read-out: MIC
Method: as §3, with “MICs (Tables 1 and S1–S3) were determined with a standard serial broth microdilution technique according to Clinical and Laboratory Standards Institute (CLSI) guidelines.[45] Cation-adjusted” for “Cation-adjusted”
as §5

P. aeruginosa ATCC 27853 = assay: MIC broth microdilution (CLSI); format: cell-based; settings: Pseudomonas aeruginosa, ATCC27853; read-out: MIC
Method: as §3, with “MICs (Tables 1 and S1–S3) were determined with a standard serial broth microdilution technique according to Clinical and Laboratory Standards Institute (CLSI) guidelines.[45] Cation-adjusted” for “Cation-adjusted”
as §5

[3] = tested on: S. aureus (MRSA) ATCC 43300; assay: MIC broth microdilution (CLSI); format: cell-based; settings: Staphylococcus aureus
Method: as §3, with “MICs (Tables 1 and S1–S3) were determined with a standard serial broth microdilution technique according to Clinical and Laboratory Standards Institute (CLSI) guidelines.[45] Cation-adjusted” for “Cation-adjusted”
as §5

[4] = tested on: 3 sensitive and 7 MDR A. baumannii clinical isolates; assay: MIC, Hungarian clinical isolates and controls (384-well); format: cell-based
[5] = tested on: Chinese hamster ovary K1 cells; assay: in vitro micronucleus test; settings: without S9, 1 µM
[6] = tested on: S. aureus ATCC 700699 (VISA); format: in vivo, female CD-1 mice
Method: The neutropenic mouse thigh infection model study was performed by NeoSome Life Sciences, LLC (Lexington, MA, USA) according to NeoSome Institutional Animal Care and Use Committee (IACUC) policies and guidelines as well as NIH’s Office of Laboratory Animal Welfare (OLAW) standards.
Neutropenic mouse thigh infection experiments were performed on female CD-1 mice (Charles River Laboratories, USA). To induce neutropenia, mice received two doses of cyclophosphamide on days −4 and −1 with 150 and 100 mg/kg delivered intraperitoneally (IP), respectively. The inoculum of the testing strain, S. aureus ATCC 700699-P1 (VISA), was prepared from overnight agar plate cultures. To prepare bacterial inoculums, a portion of the plate was resuspended in sterile saline and adjusted to an OD of 0.12 at 625 nm. Next, the resulted bacterial suspension was further diluted to reach an infecting inoculum of 6.0 × 10^5 cfu per each mouse. Plate counts of the inoculum were also performed in each case to confirm the inoculum concentration, and the actual inoculum size was 7.25 × 10^5 cfu/mouse. Mice were inoculated with 100 μL of the prepared bacterial suspension via an intramuscular injection into the right rear thigh. […] The test agent was then dosed via IV administration, to ensure optimal distribution, at 2, 10, and 18 h post-infection. Beginning at 2 h, post-infection mice were dosed with either test article or positive control antibiotic. Mice receiving test agents were dosed intravenously at 10 mL/kg. Linezolid was delivered as a SC dose to ensure optimized exposure, distribution, and efficacy. Four animals were dosed per group. One group of four mice was euthanized at the initiation of therapy (t = 2 h) and cfus determined. All remaining mice were euthanized at 26 h post-infection. At termination, thighs were aseptically excised, weighed, and homogenized to a uniform consistency in 2 mL of sterile saline. The homogenate was serially diluted and plated on bacterial growth media. The cfus were enumerated after overnight incubation.

Compound: COCCCNc1cc(C(=O)O)cc2sc(NC(=O)c3[nH]c(C)c(Cl)c3Cl)nc12.N [8c, 2-(3,4-Dichloro-5-methyl-1H-pyrrole-2-carboxamido)-4-((3-methoxypropyl)amino)benzo[d]thiazole-6-carboxylic Acid]
- IC50 (DNA gyrase from E. coli): 15 ± 5 nM
- IC50 (topo IV from E. coli): 190 ± 6 nM
- MIC (A. baumannii ATCC 17978; read-out: MIC): 2 µg/mL
- MIC (A. baumannii ATCC 17978; read-out: MIC [µg/mL] (A. baumannii ATCC 17978)): 2 µg/mL
- MIC (S. aureus ATCC 29213; read-out: MIC): < 0.0312 µg/mL
- MIC (S. aureus ATCC 29213; read-out: MIC [µg/mL](S. aureus ATCC 29213)): < 0.0312 µg/mL
- MIC [1]: > 0.0312 µg/mL
- MIC (E. coli ATCC 25922): 8 µg/mL
- MIC [2]: > 64 µg/mL
- MIC (K. pneumoniae ATCC 10031): 2 µg/mL
- MIC (P. aeruginosa ATCC 27853): 8 µg/mL
- MIC ([3]; read-out: MIC): < 0.0312 µg/mL
- MIC ([3]; read-out: MIC [µg/mL](S. aureus MRSA ATCC4330)): < 0.0312 µg/mL

Compound: NCC[C@H](O)C(=O)N[C@@H]1C[C@H](N)[C@@H](O[C@H]2O[C@H](CN)[C@@H](O)[C@H](O)[C@H]2O)[C@H](O)[C@H]1O[C@H]1O[C@H](CO)[C@@H](O)[C@H](N)[C@H]1O [Amikacin, amikacin]
- Cumulative % at MIC ([4]; n=10, MIC 2 µg/mL): 10%
- Cumulative % at MIC ([4]; n=10, MIC 256 µg/mL): 100%

Compound: C[C@@H](O)[C@H]1C(=O)N2C(C(=O)O)=C(S[C@@H]3CN[C@H](CNS(N)(=O)=O)C3)[C@H](C)[C@H]12 [Doripenem, doripenem]
- Cumulative % at MIC ([4]; n=10, MIC 0.0625 µg/mL): 10%
- Cumulative % at MIC ([4]; n=10, MIC 2 µg/mL): 30%
- Cumulative % at MIC ([4]; n=10, MIC 128 µg/mL): 60%
- Cumulative % at MIC ([4]; n=10, MIC 256 µg/mL): 100%
- Cumulative % at MIC ([4]; n=10, MIC […]): 20%

Compound: CO[C@@]12[C@H](COC(N)=O)C3=C(C(=O)C(C)=C(N)C3=O)N1C[C@@H]1N[C@@H]12 [Mitomycin C]
- No. binucleate cells [5]: 920

Compound: NC[C@H]1O[C@H](O[C@H]2[C@H](O)[C@@H](O[C@H]3O[C@H](CO)[C@@H](O)[C@H](N)[C@H]3O)[C@H](N)C[C@@H]2N)[C@H](N)C[C@@H]1O [Tobramycin, tobramycin]
- Cumulative % at MIC ([4]; n=10, MIC 1 µg/mL): 10%
- Cumulative % at MIC ([4]; n=10, MIC 2 µg/mL): 20%
- Cumulative % at MIC ([4]; n=10, MIC […] µg/mL): 70%
- Cumulative % at MIC ([4]; n=10, MIC 256 µg/mL): 100%
- Cumulative % at MIC ([4]; n=10, MIC […] µg/mL): 60%

Compound: CC(=O)NC[C@H]1CN(c2ccc(N3CCOCC3)c(F)c2)C(=O)O1 [linezolid]
- Change in log10CFU/gr of thigh from 2 hour control ([6]; 50 mg/kg BID/SC): -0.61
- Average log10CFU/gr of thigh ([6]; 50 mg/kg BID/SC, 26 h): 5.69
- reduction compared to 2 hour infection controls ([6]; 50 mg/kg SC (BID)): 0.61 log10 cfu
- reduction compared to 26 hour infection controls ([6]; 50 mg/kg SC (BID)): 2.41 log10 cfu
- CFU/ g of thigh, single animals ([6]; linezolid group): 7.27E+05 and 7.86E+05 and 5.42E+05 and 1.84E+05
- log CFU, single animals ([6]; linezolid group): 5.86 and 5.90 and 5.73 and 5.26

Compound: colistin
- Cumulative % at MIC [4]: 50% and 70% and 100%
- MIC inhibiting all strains ([4]; all 10 isolates): 4 µg/mL

Compound: imipenem/relebactame
- Cumulative % at MIC ([4]; n=10, MIC 0.5 µg/mL): 20%
- Cumulative % at MIC ([4]; n=10, MIC 2 µg/mL): 30%
- Cumulative % at MIC ([4]; n=10, MIC 64 µg/mL): 70%
- Cumulative % at MIC ([4]; n=10, MIC 128 µg/mL): 90%
- Cumulative % at MIC ([4]; n=10, MIC 256 µg/mL): 100%

Compound: trimethoprim/sulfamethoxazole
- Cumulative % at MIC ([4]; n=10, MIC […] µg/mL): 20%
- Cumulative % at MIC ([4]; n=10, MIC 32 µg/mL): 70%
- Cumulative % at MIC ([4]; n=10, MIC 64 µg/mL): 100%
